Assay results from patent US9828344B2, “Inhibitors of the notch signaling pathway and secretion for use in medicine” (Leibniz-Institut für Altersforschung Fritz-Lipmann-Institut …, priority 2012, dated 2017).
Peptide text beside a SMILES is read from it. * marks the point of attachment. Cbz = O=C(OCc1ccccc1)*; OtBu = CC(C)(C)O*

Experiments:
APP = APP processing in HEK293 cells stably expressing APPswe; format: cell-based; details: 10 μM, 16 h
Procedure: FIG. 3: Effect of compounds on NotchΔE-EGFP, APP and Klotho trafficking and processing. a) HEK293 stably expressing APPswe or Klotho (KI) were incubated with DAPT or compounds (10 μM) for 16 h. Media were collected, cells lysed and both assayed by Western blotting using indicated antibodies. m, mature; im, immature; s, shedded ectodomain; CTF, C-terminal fragment. b) Membranes from HeLa-NotchΔE-EGFP and APPswe cells were isolated and subjected to a γ-secretase in vitro assay in the presence of DAPT or compounds as indicated. NICD and AICD were detected by Western Blotting using antibodies against the C-terminus of APP (top) or antibodies specific for NICD (bottom). c) Quantitation from 5 independent experiments.
To test if the compounds that affected NotchΔE-EGFP processing also affected APP processing, HEK293 cells were used that stably expressed APPswe, a mutated APP that yields robust amounts of Aβ^18. […] All other compounds had no effect on APPCTF or Aβ.
APP, APPs, APPCTF and Aβ detection was as described before^54 using antibodies 22C11 for APP and APPs, 6687 for APPCTF and 3552 and 2D8 for Aβ. Klotho was detected as described in Bloch et al.^20. Chemoluminescence was quantified on a LAS-4000 (Fuji) with MultiGauge software.

zebrafish embryos = assay: Zebrafish embryo Notch phenotype (somites, ngn1 qPCR and ISH); format: in vivo, zebrafish Danio rerio; details: 50 μM; for ngn1 positive cell clusters in the developing brain (ISH): compared to DMSO controls; for ngn1 positive cell clusters along the spinal cord (ISH): compared to DMSO-treated control embryos; for ngn1 mRNA levels (qPCR): relative to DMSO controls
Procedure: Cells were incubated with DAPT or 10 μM of the indicated compounds (50 μM in case of FLI-15 and -20) and after 16 h a luciferase assay was performed. […] Changes in relative gene expression levels (fold change) relative to the expression levels in DMSO controls are represented as the mean+/−SD, asterisks indicate p<0.01. Each measurement was taken from two independent samples. Each reaction was measured in triplicate. Changes in the relative expression of ngn1 were standardized to the expression of the housekeeping gene ef1a at 20 hpf. c) ISH with riboprobes specific for ngn1 was performed on dechorionated stage 4 hpf zebrafish embryos. Anterior is to the left, dorsal to the top. Magnifications of the somite region (small box) are shown. Arrows indicate larger ngn1 clusters or stronger ngn1 staining. s, sensory neurons; i, intermediate neurons; m, motor neurons.
FIG. 11: Selected compounds affect somite formation and neurogenesis in vivo in zebrafish embryos. a) Lateral view of typical representative phenotypes induced by DAPT treatment, which were used as a reference to score the effect of compounds. […] Images were taken at 24 hpf. b) Pie chart showing the cumulative relative frequency of the phenotypes in a) at 24 hpf in embryos treated with 20, 50 and 100 iM of the indicated compounds. c) ISH with riboprobes specific for ngn1 was performed on dechorionated stage 4 hpf zebrafish embryos. Anterior is to the left, dorsal to the top. Magnifications of the developing head (box) are shown. Arrows indicate larger ngn1 clusters or stronger ngn1 staining. t, telencephalon; p, protectum; h, hindbrain; d, diencephalon; tg, tegmentum; vrc, ventral rostral cluster.
We wanted to test whether the results obtained with the NotchΔE-EGFP construct are relevant for endogenous Notch signaling. Therefore we made use of C2C12 cells, a well established model for muscle development that expresses endogenous Notch^21,22. After stimulating endogenous Notch signaling by transfecting the Notch ligand Delta, Notch activity was measured by a luciferase assay using a Notch reporter^15 in the presence or absence of compounds (FIG. 4a). […] Next, we tested whether selected compounds would affect Notch signaling in vivo. […] Compounds were added to dechorionated stage 4 hpf zebrafish embryos and the effects were analyzed after 24 h by morphological inspection of somite formation. Phenotypes were ranked to four categories, normal somites, mild somite defects, strong somite defects and developmental delay. […] As an additional parameter we decided to analyze Notch-dependent genes involved in neurogenesis. Primary neurogenesis in zebrafish involves the selection of neuroblasts (repressed by Notch) from proneural clusters (Notch expressing cells), a process regulated in a negative manner by Notch-dependent lateral inhibition^25. Accordingly, neuroblast cells that express the neuronal specification factor neurogenin (ngn1^26) became more abundant when Notch signaling was impaired, for instance upon DAPT treatment^23,27. qPCR analyses on mRNA extracted from equivalent sets of embryos was performed for ngn1 expression (FIG. 4b). […] To confirm the data obtained by qPCR, whole-mount in-situ hybridizations (ISH) using an ngn1 specific riboprobe were performed (FIG. 4c, FIG. 11c). […] Taken together, FLI-06, -14, -15, -19 and -20 inhibited endogenous Notch signaling in vitro and in vivo, corroborating the NotchΔE-EGFP reporter data.
Embryos were obtained from natural spawning of wild-type TüAB strain adults, raised and staged according to supp. Ref 14. DAPT and compounds were applied at 50 iM in E3 embryo medium to zebrafish embryos with chorions torn but not completely removed from sphere stage until the stage of analysis, according to ref 23. Control embryos were mock treated with the same concentration of DMSO dissolved in E3 embryo medium. […]

NotchΔE-EGFP = assay: Fluorescence microscopy of reporter localization in HeLa NotchΔE-EGFP cells; format: cell-based; details: 50 μM compound
VSVG-EGFP = format: cell-based
COPII vesicles = assay: In vitro COPII budding assay with permeabilized cells; format: biochemical; details: for budding of COPII vesicles after pretreatment of cells: cells pretreated with FLI-06 for 4 hours
DND-41 cells = assay: Growth of DND-41 cells (FACS); format: cell-based
Procedure: FIG. 18: FLI-06 inhibits secretion of secreted alkaline phosphates; FLI-06 kills cancerous, Notch dependent T-cells. a) The secreted alkaline phosphatase (SEAP) assay was carried out. Medium was collected and SEAP secretion was measured via photometry. […] The cells were grown in suspension with the indicated amounts of FLI-06 or DMSO control and growth was determined via FACS analysis.
To test whether FLI-06 would ultimately be useful to treat cancerous diseases we incubated DND-41 cells having a Notch heterodimerization domain that leads to hyperactive Notch signaling (Weng et al, Science, 2004) with FLI-06.

KlothoS = assay: Secretion of KlothoS from transfected HeLa cells; format: cell-based; details: 18 h
Procedure: Thereafter cells were fixed and analyzed by immunofluorescence microscopy. […] After incubating with compounds for 18 h media were collected, cells lysed and both analyzed by Western Blotting using Klotho antibody. As loading control membranes were probed for actin. […] […] Tunicamycin (Tun) and 5 mM DTT were used as positive controls. […] Shown is the average of three independent experiments, error bars indicate standard deviation.

BIP and ATF6 = details: human, 24 h

## Cn1c2ccccc2c2c(C(=O)N3CCN(Cc4ccc5c(c4)OCO5)CC3)cn(C3CCCC3)c(=O)c21 [FLI-14]
APP
  APPCTF in cells: accumulated
  Aβ in the cell supernatant: essentially disappeared
Zebrafish embryos
  ngn1 positive cell clusters in the developing brain (ISH): differentially expanded
  ngn1 positive cell clusters along the spinal cord (ISH): expanded and denser clusters of ngn1 positive cells
  ngn1 mRNA levels (qPCR): significantly increased
NotchΔE-EGFP
  localization of NotchΔE-EGFP/NICD-EGFP: strong reduction of nuclear NICD-EGFP fluorescence and concomitant accumulation at the PM

## CC(C)CC(NC(=O)C(Cc1ccccc1)NC(=O)C1CCCN1C(=O)OCc1ccccc1)C(=O)OC(C)(C)C (stereo not drawn) [FLI-19] (Cbz-Pro-Phe-Leu-OtBu; configuration not given here)
APP
  APPs (shedded ectodomain) secretion: reduced APPs secretion
Zebrafish embryos
  ngn1 positive cell clusters along the spinal cord (ISH): increased
  ngn1 mRNA levels (qPCR): did not induce significant changes
NotchΔE-EGFP
  localization of NotchΔE-EGFP/NICD-EGFP: strong reduction of nuclear NICD-EGFP fluorescence and concomitant accumulation at the PM

## CC1=C(C(=O)OC2CCCCC2)C(c2ccc([N+](=O)[O-])cc2)C2=C(CC(C)(C)CC2=O)N1 (stereo not drawn) [FLI-06, Cyclohexyl 4-(4′-nitrophenyl)-2,7,7-trimethyl-5-oxo-1,4,5,6,7,8-hexahydroquinoline-3-carboxylate]
APP
  APPCTF in cells: no APPCTF accumulated
  APPs (shedded ectodomain) secretion: abolished the shedding of APPs
  Aβ in the cell supernatant: essentially disappeared
  glycosylation pattern of APP: changed the glycosylation pattern of APP
Zebrafish embryos
  ngn1 positive cell clusters in the developing brain (ISH): differentially expanded
  ngn1 positive cell clusters along the spinal cord (ISH): expanded and denser clusters of ngn1 positive cells
  ngn1 mRNA levels (qPCR): significantly increased
VSVG-EGFP
  recruitment of VSVG-EGFP to ERES: strongly reduced
  velocity of action on ER export: acts instantaneously on ER export
COPII vesicles; 100 μM FLI-06 in reaction
  budding of COPII vesicles after pretreatment of cells: strongly
COPII vesicles; no FLI-06 in reaction
  budding of COPII vesicles after pretreatment of cells: slightly inhibited
COPII vesicles; no FLI-06 pretreatment of cells
  COPII budding reaction, compound added directly to the assay: did not inhibit the COPII budding reaction
DND-41 cells; 1 μM
  effect on DND-41 cells: inhibited proliferation
DND-41 cells; 10 μM
  effect on DND-41 cells: total cell death after 4 days
KlothoS
  secretion of KlothoS: inhibit secretion of KlothoS
BIP and ATF6
  ER-stress (BIP up-regulation, ATF6 luciferase): only very mild ER-stress after 24 h

## CC(=O)Nc1ccc2nc(NC(=O)CC34CC5CC(CC(C5)C3)C4)sc2c1 [FLI-20]
APP
  APPCTF in cells: accumulated
  APPs (shedded ectodomain) secretion: reduced APPs secretion
  Aβ in the cell supernatant: weakly reduced
Zebrafish embryos
  ngn1 positive cell clusters in the developing brain (ISH): differentially expanded
  ngn1 positive cell clusters along the spinal cord (ISH): expanded and denser clusters of ngn1 positive cells
  ngn1 mRNA levels (qPCR): significantly increased
NotchΔE-EGFP
  localization of NotchΔE-EGFP/NICD-EGFP: strong reduction of nuclear NICD-EGFP fluorescence and concomitant accumulation at the PM

## Cc1ccc(NC(=O)C(NS(=O)(=O)c2cccc3nsnc23)C(C)C)nc1 (stereo not drawn) [FLI-15]
APP
  APPCTF in cells: accumulated
  Aβ in the cell supernatant: weakly reduced
Zebrafish embryos
  ngn1 positive cell clusters in the developing brain (ISH): differentially expanded
  ngn1 positive cell clusters along the spinal cord (ISH): expanded and denser clusters of ngn1 positive cells
  ngn1 mRNA levels (qPCR): significantly increased
NotchΔE-EGFP
  localization of NotchΔE-EGFP/NICD-EGFP: strong reduction of nuclear NICD-EGFP fluorescence and concomitant accumulation at the PM
